Data as given in patent publication US20060046988A1, “Methoprene formulations for the control of tick infestations” (priority 2004, published 2006).
Like-named read-outs stand apart in the source and are kept apart here.

Tested on: Boophilus microplus
Assay: In vitro immersion of engorged female ticks in (S)-methoprene: egg laying, egg weight, hatching
Details: for Eggs Viable / Eggs Weight / Number of Ticks Laying Eggs (Day 14): 10 ticks treated; for Eggs Hatch (%): eggs incubated another 4 weeks; for Total Egg Mass / Total Viable Egg Mass / Total Number of Ticks Laying Eggs: both replicates; for Total Number of Ticks Laying Eggs: 20 ticks treated; for Percent Reduction in Egg Mass per Tick / Percent Reduction in Number of Ticks Laying Eggs / Percent Reduction in Total Egg Mass / inhibition at 100 ppm / inhibition at 1000 ppm / inhibition at 10000 ppm / inhibition at 100000 ppm: vs 0 ppm; for inhibition at 100 ppm / inhibition at 1000 ppm / inhibition at 10000 ppm / inhibition at 100000 ppm: Rhipicephalus microplus
Text: Engorged female ticks were separated into groups of 10, weighed and placed in small containers. Group assignments were adjusted so that the total weight of ticks in each group was similar. Each container of 10 ticks was then randomly assigned to one of the five treatment groups, with two replicates per group. Each replicate of ten female ticks each was then immersed in a solution of (S)-methoprene at a concentration of 0, 100, 1000, 10000 and 100000 ppm of (S)-methoprene diluted in acetone:water (40:60 vN). The ticks were maintained immersed in a treatment for 2 minutes.
After exposure, ticks were removed and dried in a pad prepared with paper towels. Each group was then placed into a clean container identified with the treatment group and incubated for 2 weeks at approximately 27° Celsius and 60% or higher relative humidity to determine the proportion of egg laying females. Eggs laid were weighed and incubated for another 4-week period for hatching observation.

COC(C)(C)CCC[C@H](C)C/C=C/C(C)=C/C(=O)OC(C)C [(S)-methoprene]
Egg Mass per Tick (100 ppm): 0.173 g
Viable Egg Mass per Tick (100 ppm): 0.173 g
Eggs Viable (100 ppm, Replicate A): 1.38 g
Eggs Weight (100 ppm, Replicate A): 1.38 g
Number of Ticks Laying Eggs (Day 14) (100 ppm, Replicate A): 9
Eggs Hatch (%) (100 ppm, Replicate A): 100%
Eggs Viable (100 ppm, Replicate B): 1.39 g
Eggs Weight (100 ppm, Replicate B): 1.39 g
Number of Ticks Laying Eggs (Day 14) (100 ppm, Replicate B): 7
Eggs Hatch (%) (100 ppm, Replicate B): 100%
Total Egg Mass (100 ppm): 2.77 g
Total Viable Egg Mass (100 ppm): 2.77 g
Total Number of Ticks Laying Eggs (100 ppm): 16
Percent Reduction in Egg Mass per Tick (100 ppm): 1%
Percent Reduction in Number of Ticks Laying Eggs (100 ppm): 20%
Percent Reduction in Total Egg Mass (100 ppm): 21%
Egg Mass per Tick (1,000 ppm): 0.152 g
Viable Egg Mass per Tick (1,000 ppm): 0.022 g
Eggs Viable (1,000 ppm, Replicate A): 0.09 g
Eggs Weight (1,000 ppm, Replicate A): 0.47 g
Number of Ticks Laying Eggs (Day 14) (1,000 ppm, Replicate A): 3
Eggs Hatch (%) (1,000 ppm, Replicate A): 20%
Eggs Viable (1,000 ppm, Replicate B): 0.04 g
Eggs Weight (1,000 ppm, Replicate B): 0.44 g
Number of Ticks Laying Eggs (Day 14) (1,000 ppm, Replicate B): 3
Eggs Hatch (%) (1,000 ppm, Replicate B): 10%
Total Egg Mass (1,000 ppm): 0.91 g
Total Viable Egg Mass (1,000 ppm): 0.13 g
Total Number of Ticks Laying Eggs (1,000 ppm): 6
Percent Reduction in Egg Mass per Tick (1,000 ppm): 13%
Percent Reduction in Number of Ticks Laying Eggs (1,000 ppm): 70%
Percent Reduction in Total Egg Mass (1,000 ppm): 74%
Egg Mass per Tick (10,000 ppm): 0.134 g
Viable Egg Mass per Tick (10,000 ppm): 0 g
Eggs Viable (10,000 ppm, Replicate A): 0 g
Eggs Weight (10,000 ppm, Replicate A): 1.22 g
Number of Ticks Laying Eggs (Day 14) (10,000 ppm, Replicate A): 9
Eggs Hatch (%) (10,000 ppm, Replicate A): 0%
Eggs Viable (10,000 ppm, Replicate B): 0 g
Eggs Weight (10,000 ppm, Replicate B): 0.92 g
Number of Ticks Laying Eggs (Day 14) (10,000 ppm, Replicate B): 7
Eggs Hatch (%) (10,000 ppm, Replicate B): 0%
Total Egg Mass (10,000 ppm): 2.14 g
Total Viable Egg Mass (10,000 ppm): 0 g
Total Number of Ticks Laying Eggs (10,000 ppm): 16
Percent Reduction in Egg Mass per Tick (10,000 ppm): 23%
Percent Reduction in Number of Ticks Laying Eggs (10,000 ppm): 20%
Percent Reduction in Total Egg Mass (10,000 ppm): 39%
Egg Mass per Tick (100,000 ppm): 0.125 g
Viable Egg Mass per Tick (100,000 ppm): 0 g
Eggs Viable (100,000 ppm, Replicate A): 0 g
Eggs Weight (100,000 ppm, Replicate A): 0.58 g
Number of Ticks Laying Eggs (Day 14) (100,000 ppm, Replicate A): 4
Eggs Hatch (%) (100,000 ppm, Replicate A): 0%
Eggs Viable (100,000 ppm, Replicate B): 0 g
Eggs Weight (100,000 ppm, Replicate B): 0.42 g
Number of Ticks Laying Eggs (Day 14) (100,000 ppm, Replicate B): 4
Eggs Hatch (%) (100,000 ppm, Replicate B): 0%
Total Egg Mass (100,000 ppm): 1.00 g
Total Viable Egg Mass (100,000 ppm): 0 g
Total Number of Ticks Laying Eggs (100,000 ppm): 8
Percent Reduction in Egg Mass per Tick (100,000 ppm): 29%
Percent Reduction in Number of Ticks Laying Eggs (100,000 ppm): 60%
Percent Reduction in Total Egg Mass (100,000 ppm): 71%
inhibition at 100 ppm (100 ppm, read-out: Percent Reduction in Viable Egg Mass): 21%
inhibition at 100 ppm (100 ppm, read-out: Percent Reduction in Viable Egg Mass per Tick): 1%
inhibition at 1000 ppm (1,000 ppm, read-out: Percent Reduction in Viable Egg Mass): 96%
inhibition at 1000 ppm (1,000 ppm, read-out: Percent Reduction in Viable Egg Mass per Tick): 87%
inhibition at 10000 ppm (10,000 ppm, read-out: Percent Reduction in Viable Egg Mass): 100%
inhibition at 10000 ppm (10,000 ppm, read-out: Percent Reduction in Viable Egg Mass per Tick): 100%
inhibition at 100000 ppm (100,000 ppm, read-out: Percent Reduction in Viable Egg Mass): 100%
inhibition at 100000 ppm (100,000 ppm, read-out: Percent Reduction in Viable Egg Mass per Tick): 100%
egg laying (all treatment groups (100 to 100000 ppm)): Eggs were laid
egg viability (concentrations at and above 10,000 ppm): completely inhibited
egg hatching (concentrations of 10,000 ppm and above): did not hatch
